We go through seven compounds from US8461085B2, “Bioherbicide from Festuca spp” (Cornell Research Foundation, Inc., priority 2005, dated 2013).

“Also recorded” adds a separate entry of the source.

The subject of test [1] is Arabidopsis thaliana seedlings. As to the kind of experiment: Arabidopsis root growth inhibition in growth media. The class given is in vivo. Particulars: for relative toxicity of the D, L and DL forms: Arabidopsis thaliana seedlings.
Test [2] relates to lettuce seedlings (Lactuca sativa L.). As to the kind of experiment: Petri-dish bioassay, radicle elongation in lettuce seedlings. The class given is in vivo. The following applies: lettuce seedlings.

Regarding `N[C@@H](Cc1ccccc1)C(=O)O` [phenylalanine, reference compound], in test [1] (root growth inhibition initiated by m-tyrosine), the “root growth restored by addition of phenylalanine” value is 80 % of the control levels.

`N[C@H](Cc1cccc(O)c1)C(=O)O` [D-m-tyrosine]: in test [1], the “toxicity of the three forms at 40 μM” value was “same level of toxicity”; the “relative toxicity of the D, L and DL forms” value (“relative toxicity of the D” for short) is given as “less toxic at low concentrations”.

`N[C@@H](Cc1ccc(O)cc1)C(=O)O` [p-tyrosine, tyrosine]: the “phytotoxicity” value in test [2] is “no toxicity; also recorded: not phytotoxic”. Moreover, the “rescue of root growth inhibition initiated by 3 μM of m-tyrosine” value in test [1] (concentrations up to 1 mM) is “did not rescue”.

For `N[C@@H](Cc1ccccc1O)C(=O)O` [o-tyrosine, 2′-hydroxyphenylalanine], the “phytotoxicity” value in test [2] is listed as “no toxicity; also recorded: not phytotoxic; also recorded: devoid of herbicidal activity”.

Take `NC(Cc1cccc(O)c1)C(=O)O` (stereo not drawn) [DL m-tyrosine]: in test [1], the “toxicity of the three forms at 40 μM” value was “same level of toxicity”; the “relative toxicity of the D” value is “roughly equal toxicity”.

`N[C@@H](Cc1cccc(O)c1)C(=O)O` [L-m-tyrosine, L-3′-hydroxyphenylalanine]: in test [1], the “toxicity of the three forms at 40 μM” value is on record as “same level of toxicity”; the “relative toxicity of the D” value was “roughly equal toxicity”.

Regarding `O=C(O)C(=O)Cc1cccc(O)c1` [m-hydroxyphenylpyruvic acid], the “toxicity compared with m-tyrosine” value in test [1] (Arabidopsis root growth) is “as toxic as m-tyrosine”. Besides, the “root growth of Arabidopsis when phenylalanine is added to the media” value in test [1] (in vivo) is given as “not rescued”.
